This note sets out measurements from US9416163B2, “Synthetic oligopeptides designed from mite cysteine proteases and methods for the production of polyclonal IgY antibodies for the detection of intradomiciliary mites” (priority 2009, dated 2016).

The assay relates to Hi Line Brown chickens. Put plainly: Immunogenicity of synthetic peptide in immunized chickens (IgY production). The format is in vivo, chicken. Conditions: chickens immunized intramuscularly with peptide in Freund's adjuvant; IgY from egg yolk. The text has this:
An experimental avian model was used in the experiments, represented by Hi Line Brown chickens, immunized with peptide 2, using complete Freund's adjuvant during the first immunization and incomplete Freund's adjuvant for the three subsequent immunizations, as described in the immunization protocol used. As a positive control, chickens were immunized with BSA, and as a negative control they were not immunized. Antibodies were extracted from egg yolk using an organic solvent and purified by thiophilic chromatography. Indirect ELISA tests were developed to measure the antibody titer and its specificity was determined by indirect ELISA. (25-26)
Experiments used an avian experimental model, represented by Hi Line Brown chickens, immunized with peptide 2, using complete Freund's adjuvant for the first immunization and incomplete Freund's adjuvant for the three subsequent immunizations described in the immunization protocol used. As a positive control, chickens were immunized with BSA, and as a negative control they were not immunized. Antibodies were extracted from egg yolk using an organic solvent and purified by thiophilic chromatography. Indirect ELISA tests were developed to measure the antibody titer and its specificity was determined by indirect ELISA. (25-26)
Experiments used an avian experimental model, represented by Hi Line Brown chickens, immunized with peptide 4, using complete Freund's adjuvant for the first immunization and incomplete Freund's adjuvant for the three subsequent immunizations described in the immunization protocol used. […] Indirect ELISA tests were developed to measure the antibody titer and its specificity was determined by indirect ELISA. […]
Experiments used an avian experimental model, represented by Hi Line Brown chickens, immunized with peptide 5, using complete Freund's adjuvant for the first immunization and incomplete Freund's adjuvant for the three subsequent immunizations described in the immunization protocol used. […] Indirect ELISA tests were developed to measure the antibody titer and its specificity was determined by indirect ELISA (FIG. 14) […]
Turning to IPANFDWRQKTHVNPIRNQG [Peptide P05], the “Immunogenicity: induction of IgY antibodies recognizing native mite proteins” value was “induces the production of IgY-anti P05 antibody that recognizes epitopes B and/or T in native proteins of intradomiciliary Dp and Bt mites”.
With PIRMQGGCGSCWAFSGV [Peptide P02], the “Immunogenicity: induction of IgY antibodies recognizing native mite proteins” value is “induces the production of IgY anti P06 antibodies that recognize B and/or T epitopes in native proteins of intradomiciliary Df, Dp and Bt mite species”.
The same measure for TNACSINGNAPAEIDLRQMR [Peptide P01]: “induces the production of IgY anti P04 antibodies that recognize B and/or T epitopes in native proteins of intradomiciliary Df and Bt mite species”.
